We go through seven molecules from ChEMBL document CHEMBL1147723, “Novel chromene-derived selective estrogen receptor modulators useful for alleviating hot flushes and vaginal dryness” (J Med Chem, 2006).

pIC50: −log10 of the molar value. The source made the active and inactive calls. The rule behind the calls is not given here. Bounds are passed on as bounds.

By pIC50 is commonly meant −log10 of the IC50, conventionally taken in molar units. A word on the IC50: it is the concentration that gives 50% inhibition. The inhibition in vivo is the change of the read-out against control, counted positive when it falls. The bioavailability is dose-corrected exposure relative to a reference, in per cent. The EC50 is the concentration giving half of the maximal effect.

Data set [1] deals with T1, Estrogen receptor (Homo sapiens, UniProt P03372).
T1 sequence (P03372 whole entry): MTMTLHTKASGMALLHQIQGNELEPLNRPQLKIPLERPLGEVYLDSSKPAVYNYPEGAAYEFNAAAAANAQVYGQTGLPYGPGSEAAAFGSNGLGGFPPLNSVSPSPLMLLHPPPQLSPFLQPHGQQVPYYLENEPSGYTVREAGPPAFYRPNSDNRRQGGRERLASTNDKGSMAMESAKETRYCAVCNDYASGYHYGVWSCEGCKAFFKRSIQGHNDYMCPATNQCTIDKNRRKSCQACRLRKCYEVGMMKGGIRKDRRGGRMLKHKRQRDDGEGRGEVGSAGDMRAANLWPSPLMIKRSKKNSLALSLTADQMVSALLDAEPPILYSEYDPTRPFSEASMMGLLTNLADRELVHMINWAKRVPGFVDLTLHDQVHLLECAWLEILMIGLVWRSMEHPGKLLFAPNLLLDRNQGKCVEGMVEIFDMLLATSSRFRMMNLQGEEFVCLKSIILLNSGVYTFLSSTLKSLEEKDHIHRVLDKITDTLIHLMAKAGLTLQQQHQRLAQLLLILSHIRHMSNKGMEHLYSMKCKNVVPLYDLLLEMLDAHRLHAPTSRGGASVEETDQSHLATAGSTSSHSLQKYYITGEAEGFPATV
Description: Binding affinity to ERalpha

A further data set deals with Estrogen receptor beta (Homo sapiens, UniProt Q92731).
Estrogen receptor beta, sequence (Q92731 whole entry): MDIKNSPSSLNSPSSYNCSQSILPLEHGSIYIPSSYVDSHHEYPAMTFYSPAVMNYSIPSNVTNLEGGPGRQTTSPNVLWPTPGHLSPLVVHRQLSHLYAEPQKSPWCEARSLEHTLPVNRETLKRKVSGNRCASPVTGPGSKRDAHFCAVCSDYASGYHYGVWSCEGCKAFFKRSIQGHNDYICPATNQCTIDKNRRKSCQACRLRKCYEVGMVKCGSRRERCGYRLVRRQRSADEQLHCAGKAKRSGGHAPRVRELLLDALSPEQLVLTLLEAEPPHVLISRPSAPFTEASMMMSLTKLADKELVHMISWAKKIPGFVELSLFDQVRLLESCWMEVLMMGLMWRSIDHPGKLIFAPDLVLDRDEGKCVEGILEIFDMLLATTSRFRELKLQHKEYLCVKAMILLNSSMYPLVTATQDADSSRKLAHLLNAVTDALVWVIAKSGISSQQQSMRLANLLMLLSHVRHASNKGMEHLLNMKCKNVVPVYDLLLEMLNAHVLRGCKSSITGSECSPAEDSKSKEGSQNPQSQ
Data set [2] has as its target T2, Estrogen receptor (Homo sapiens, UniProt Q92731+P03372). The settings on record: ishikawa.
Description: Inhibition of estrogen receptor in Ishikawa cells
Data set [3] concerns the target T2, Estrogen receptor. The settings on record: mcf7.
Description: Inhibition of estrogen receptor in MCF7 cells
Data set [4] relates to Rattus norvegicus. The data set can be described thus: (§1) Ability to block estrone-induced increase in uterine wet weight in immature rat at […], po after 3 days by uterotropic assay. Type of data set: functional. The note with it: 72 h.
Data set [5] deals with Rattus norvegicus. The data set can be described thus: Ability to block estrone-induced increase in uterine wet weight in immature rat at 0.42 mg/kg/day, po after 3 days by uterotropic assay. Type of data set: functional. The note with it: 72 h.
For data set [6], the system named is Rattus norvegicus. The data set is described as §1. Format: functional. The settings on record: 72 h. The source holds these as a separate data set.
For data set [7], the species on record is Rattus norvegicus. The data set can be described thus: Inhibition of bone loss in ovariectomized rat. Type of data set: functional, organism-based.
The species entered for data set [8] is Rattus norvegicus. Briefly: Reduction in serum cholesterol level in ovariectomized rat. Format: functional. The arrangement: scale not given: the % may be the effect or the level left.
Data set [9] deals with Rattus norvegicus. The data set can be described thus: (§2) Increase in vaginal fluid in ovariectomized rat at […], po. Format: functional, organism-based. Set-up: dose 0.14 mg/kg.
The test system of data set [10] is Rattus norvegicus. The data set is described as §2. Type of data set: functional, organism-based. The arrangement: dose 1.4 mg/kg.
In data set [11] the test system is Rattus norvegicus. Briefly: Ability to suppress increase of tail skin temperature in morphine-dependent rat at […].day, po. Format: functional, organism-based. The arrangement: dose 1.4 mg/kg.
Data set [12] can be described thus: Bioavailability in rat plasma. Format: ADME, organism-based.
Data set [13] concerns the target T2, Estrogen receptor. Briefly: Agonist activity at estrogen receptor in MCF7 cells. Format: functional, cell-based.
Data set [14] is filed under the species Rattus norvegicus. Briefly: Ability to suppress increase of tail skin temperature in morphine-dependent rat. Format: functional, organism-based.

Description for Estrogen receptor beta: Binding affinity to ERbeta

`Oc1ccc2c(c1)O[C@@H](c1ccc(OCCN3CCCCC3)cc1)C1=C2COc2cc(O)ccc21`: the negative-log IC50 (pIC50) was 9.21 against Estrogen receptor [1] and 8.89 against Estrogen receptor beta. Further, the IC50 against Estrogen receptor [2] stood at 17.1 nM; at Estrogen receptor [3], 416 nM.

As to `Oc1ccc2c(c1)O[C@H](c1ccc(OCCN3CCCCC3)cc1)C1=C2COc2cc(O)ccc21`, the results for the pIC50 on Estrogen receptor [1] and against Estrogen receptor beta were 7.29 and 7.69, respectively. Besides, the IC50 is on record as 43.3 nM against Estrogen receptor [2] and 599 nM at Estrogen receptor [3].

`CC(C)(C)C(=O)Oc1ccc2c(c1)O[C@H](c1ccc(OCCN3CCCCC3)cc1)C1=C2COc2cc(OC(=O)C(C)(C)C)ccc21`: the results for the inhibition in vivo at […] in the data set on Rattus norvegicus [4] and with Rattus norvegicus [6] were 27% and 75%, respectively. Further, the inhibition in vivo at 0.42 mg/kg/day in the data set on Rattus norvegicus [5] is 55%. The Activity entry in the data set filed under Rattus norvegicus [7] is “Dose-dependent effect”; in the data set listed under Rattus norvegicus [8], 33%. Further, the outcome in the data set with Rattus norvegicus [9], in the data set with Rattus norvegicus [10] and in the data set with Rattus norvegicus [11] was Active. This molecule also yielded a bioavailability in data set [12] of 11%. The pIC50 against Estrogen receptor [1] and against Estrogen receptor beta was under 5.00 each time. Besides, the IC50 stood at 175 nM against Estrogen receptor [2] and 510 nM against Estrogen receptor [3].

In turn, `CN(C)c1ccc(C2Oc3cc(O)ccc3C3=C2c2ccc(O)cc2OC3)cc1` (stereo not drawn) came in with an EC50 on Estrogen receptor [13] of 71 nM. In addition, the IC50 against Estrogen receptor [2] is 3800 nM.

On to `CN(C)CCOc1ccc(C2Oc3cc(O)ccc3C3=C2c2ccc(O)cc2OC3)cc1` (stereo not drawn), for which the values for the IC50 at Estrogen receptor [2] and on Estrogen receptor [3] were 180 nM and 220 nM, respectively.

For the molecule `CC(C)(C)C(=O)Oc1ccc2c(c1)O[C@@H](c1ccc(OCCN3CCCCC3)cc1)C1=C2COc2cc(OC(=O)C(C)(C)C)ccc21`, the inhibition in vivo at […] in the data set on Rattus norvegicus [4] was found to be 55%; in the data set with Rattus norvegicus [6] it was 100%. The inhibition in vivo at 0.42 mg/kg/day in the data set on Rattus norvegicus [5] was determined as 88%. Also, the Activity entry in the data set filed under Rattus norvegicus [7] was “Dose-dependent effect”; in the data set filed under Rattus norvegicus [8], 33%. In the data set listed under Rattus norvegicus [14], the outcome was inactive. Further, in data set [12], the bioavailability came out at 9%. Further, the pIC50 against Estrogen receptor [1] was under 6.00; at Estrogen receptor beta, under 5.00. For the same molecule, the IC50 was found to be 99 nM against Estrogen receptor [2] and 670 nM at Estrogen receptor [3].

As to `Oc1ccc2c(c1)OC(c1ccc(OCCN3CCCCC3)cc1)C1=C2COc2cc(O)ccc21` (stereo not drawn), the results for the IC50 at Estrogen receptor [2] and against Estrogen receptor [3] were 12 nM and 110 nM, respectively.
